Numbered stars: 1 amine (or outer) side, 2 acyl side, 3 side chain; on linkers, the order of the positions; unused ones are H or OH. Square brackets hold non-standard residues; d marks the D form. Side chains are listed from the residue outwards. Peptide text beside a SMILES is read from it. * marks the point of attachment. C20 diacid = O=C(O)CCCCCCCCCCCCCCCCCCC(=O)*; C18 diacid = O=C(O)CCCCCCCCCCCCCCCCC(=O)*; αMePhe(2-F) = C[C@](N)(Cc1ccccc1F)C(=O)O; γGlu = O=C(O)[C@H](CCC(=O)[*:2])N[*:1]; αMeF = C[C@](N)(Cc1ccccc1)C(=O)O; αMeL = CC(C)C[C@](C)(N)C(=O)O; Dap = NC[C@H](N)C(=O)O; AEEA = NCCOCCOCC(=O)O; Aib = CC(C)(N)C(=O)O
Tests used:
[1] = molecular target: human GLP-1 receptor (GLP-1R) (Homo sapiens, UniProt P43220); test: cAMP pharmacological functional assay in presence of casein, hGLP-1R; format: cell-based; conditions: HEK293 cells expressing hGLP-1R, 0.1% Casein, geometric mean; read-out: hGLP1R cAMP Rel EC50 nM (SEM, n)
human Gcg receptor = molecular target: T1, human Gcg receptor (Homo sapiens, UniProt P47871); test: [125I]-Glucagon binding (SPA), human Gcg receptor; conditions: read-out: hGLcgR Ki, nM (SEM, n)
T1 construct: expressed in transfected cells; crude membranes
Summary of the method: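 Cell pellets were lysed in hypotonic Tris buffer, pH 7.5, homogenized, and spun at low then high speed to give crude membranes. Ki was derived from the fitted IC50.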

[2] = molecular target: T2, gastric inhibitory peptide receptor (GIPR) (Homo sapiens, UniProt P48546); test: cAMP pharmacological functional assay in presence of casein, hGIPR; format: cell-based; conditions: HEK293 cells expressing hGIPR, 0.1% Casein, geometric mean; read-out: hGIPR cAMP Rel EC50 nM (SEM, n)
T2 sequence (P48546 22-466): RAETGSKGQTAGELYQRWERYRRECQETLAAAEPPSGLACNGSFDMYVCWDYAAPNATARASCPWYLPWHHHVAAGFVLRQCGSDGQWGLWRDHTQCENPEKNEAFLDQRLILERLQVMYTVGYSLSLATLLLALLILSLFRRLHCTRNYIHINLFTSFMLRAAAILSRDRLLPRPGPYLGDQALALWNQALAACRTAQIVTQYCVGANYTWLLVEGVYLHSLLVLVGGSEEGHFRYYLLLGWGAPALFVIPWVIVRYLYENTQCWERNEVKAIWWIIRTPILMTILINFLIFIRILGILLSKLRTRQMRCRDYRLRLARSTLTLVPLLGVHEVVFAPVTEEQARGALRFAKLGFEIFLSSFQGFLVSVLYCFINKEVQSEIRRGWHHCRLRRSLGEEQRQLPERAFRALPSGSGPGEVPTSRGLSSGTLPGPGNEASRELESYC

human GLP-1R = human GLP-1R (Homo sapiens, UniProt P43220); test: [125I]-GLP-1 binding (SPA), human GLP-1 receptor; design: expressed in transfected cells; crude membranes; conditions: read-out: hGLP1R Ki, (nM) (SEM, n)
Summary of the method: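 Assay buffer: HEPES 25 mM, pH 7.4, CaCl2 2.5 mM, MgCl2 1 mM, with EDTA-free protease inhibitors. Receptor came from crude cell membranes prepared by homogenization and centrifugation at 4° C. IC50s came from four-parameter fits (maximum, minimum, IC50, Hill slope) and were expressed as Ki geometric means with SEM.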

human GIP receptor = molecular target: T3, human GIP receptor (Homo sapiens, UniProt P48546); test: [125I]-GIP binding (SPA), human GIP receptor; conditions: read-out: hGIPR Ki, nM (SEM, n)
T3 construct: expressed in transfected cells; crude membranes
T3 sequence (P48546 22-466): T2 sequence (P48546 22-466)

Sequence of human GLP-1R (P43220 24-463): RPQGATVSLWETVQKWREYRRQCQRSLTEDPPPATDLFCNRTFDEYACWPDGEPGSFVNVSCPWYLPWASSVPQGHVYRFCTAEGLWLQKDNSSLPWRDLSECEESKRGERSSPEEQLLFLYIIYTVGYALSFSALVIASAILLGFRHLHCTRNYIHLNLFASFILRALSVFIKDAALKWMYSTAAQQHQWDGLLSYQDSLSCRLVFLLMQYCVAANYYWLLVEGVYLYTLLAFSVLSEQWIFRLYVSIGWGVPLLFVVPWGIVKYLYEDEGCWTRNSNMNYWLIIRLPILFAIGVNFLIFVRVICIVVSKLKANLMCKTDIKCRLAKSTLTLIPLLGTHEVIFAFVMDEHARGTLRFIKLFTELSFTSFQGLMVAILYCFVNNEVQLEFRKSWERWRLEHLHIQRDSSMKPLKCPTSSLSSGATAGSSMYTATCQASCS
Sequence of human GLP-1 receptor (GLP-1R) (P43220 24-463): as above
T1 sequence (P47871 26-477): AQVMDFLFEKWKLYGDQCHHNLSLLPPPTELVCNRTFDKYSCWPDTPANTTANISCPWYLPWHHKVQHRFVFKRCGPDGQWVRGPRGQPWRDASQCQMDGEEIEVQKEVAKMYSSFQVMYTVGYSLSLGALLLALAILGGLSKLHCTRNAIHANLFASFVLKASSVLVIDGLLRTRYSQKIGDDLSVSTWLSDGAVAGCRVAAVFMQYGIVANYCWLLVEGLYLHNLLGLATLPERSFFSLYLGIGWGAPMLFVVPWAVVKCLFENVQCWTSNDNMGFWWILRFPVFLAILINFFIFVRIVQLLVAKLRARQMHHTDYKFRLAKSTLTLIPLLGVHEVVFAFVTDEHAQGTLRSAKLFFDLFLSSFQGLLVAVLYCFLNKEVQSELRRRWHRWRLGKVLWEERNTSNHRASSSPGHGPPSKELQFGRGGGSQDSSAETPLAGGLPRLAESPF

SMILES | EC50 [1] | Ki (human Gcg receptor) | EC50 [2] | Ki (human GLP-1R) | Ki (human GIP receptor)
CC[C@H](C)[C@H](NC(=O)[C@H](CC(C)C)NC(=O)[C@H](Cc1ccc(O)cc1)NC(=O)[C@@H](CCC(=O)O)NC(=O)[C@@H](NC(=O)[C@H](Cc1ccccc1)NC(=O)[C@H](CCC(=O)O)NC(=O)C(C)(C)NC(=O)[C@H](CCC(N)=O)NC(=O)[C@H](C)NC(=O)[C@H](CCCCNC(=O)COCCOCCNC(=O)COCCOCCNC(=O)CC[C@H](NC(=O)CCCCCCCCCCCCCCCCC(=O)O)C(=O)O)NC(=O)[C@H](CN)NC(=O)[C@H](CC(=O)O)NC(=O)[C@H](CC(C)C)NC(=O)[C@](C)(CC(C)C)NC(=O)[C@@H](NC(=O)[C@H](CO)NC(=O)[C@H](Cc1ccc(O)cc1)NC(=O)[C@H](CC(=O)O)NC(=O)[C@H](CO)NC(=O)[C@@H](NC(=O)[C@](C)(Cc1ccccc1F)NC(=O)[C@@H](NC(=O)CNC(=O)[C@H](CCC(=O)O)NC(=O)C(C)(C)NC(=O)[C@@H](N)Cc1ccc(O)cc1)[C@@H](C)O)[C@@H](C)O)[C@@H](C)CC)[C@@H](C)CC)C(=O)N[C@@H](CCC(=O)O)C(=O)NCC(=O)NCC(=O)N1CCC[C@H]1C(=O)N[C@@H](CO)C(=O)N[C@@H](CO)C(=O)NCC(=O)N[C@@H](C)C(=O)N1CCC[C@H]1C(=O)N1CCC[C@H]1C(=O)N1CCC[C@H]1C(=O)N[C@@H](CO)C(N)=O [Example 210] (H-Y[Aib]EGT[αMePhe(2-F)]TSDYSI[αMeL]LD[Dap]K([AEEA-AEEA-γGlu-C18 diacid])AQ[Aib]EFI[dE]YLIEGGPSSGAPPPS-NH2) | 0.0432 nM | > 1010 nM | 0.0383 nM | 1.58 nM | 0.0399 nM
CC[C@H](C)[C@H](NC(=O)[C@H](CC(C)C)NC(=O)[C@H](Cc1ccc(O)cc1)NC(=O)[C@@H](CCC(=O)O)NC(=O)[C@@H](NC(=O)[C@H](Cc1ccccc1)NC(=O)[C@H](CCC(=O)O)NC(=O)C(C)(C)NC(=O)[C@H](CCC(N)=O)NC(=O)[C@H](C)NC(=O)[C@H](CCCCNC(=O)COCCOCCNC(=O)COCCOCCNC(=O)CC[C@H](NC(=O)CCCCCCCCCCCCCCCCCCC(=O)O)C(=O)O)NC(=O)[C@H](CCCCN)NC(=O)[C@H](CC(=O)O)NC(=O)[C@H](CC(C)C)NC(=O)[C@](C)(CC(C)C)NC(=O)[C@@H](NC(=O)[C@H](CO)NC(=O)[C@H](Cc1ccc(O)cc1)NC(=O)[C@H](CC(=O)O)NC(=O)[C@H](CO)NC(=O)[C@@H](NC(=O)[C@](C)(Cc1ccccc1F)NC(=O)[C@@H](NC(=O)CNC(=O)[C@H](CCC(=O)O)NC(=O)C(C)(C)NC(=O)[C@@H](N)Cc1ccc(O)cc1)[C@@H](C)O)[C@@H](C)O)[C@@H](C)CC)[C@@H](C)CC)C(=O)N[C@@H](CCC(=O)O)C(=O)NCC(=O)NCC(=O)N1CCC[C@H]1C(=O)N[C@@H](CO)C(=O)N[C@@H](CO)C(=O)NCC(=O)N[C@@H](C)C(=O)N1CCC[C@H]1C(=O)N1CCC[C@H]1C(=O)N1CCC[C@H]1C(=O)N[C@@H](CO)C(N)=O [Example 212] (H-Y[Aib]EGT[αMePhe(2-F)]TSDYSI[αMeL]LDKK([AEEA-AEEA-γGlu-C20 diacid])AQ[Aib]EFI[dE]YLIEGGPSSGAPPPS-NH2) | 0.0572 nM | 205 nM | 0.0501 nM | 2.76 nM | 0.0978 nM
CC[C@H](C)[C@H](NC(=O)[C@H](CC(C)C)NC(=O)[C@H](Cc1ccc(O)cc1)NC(=O)[C@@H](CCC(=O)O)NC(=O)[C@@H](NC(=O)[C@H](Cc1ccccc1)NC(=O)[C@H](CCC(=O)O)NC(=O)C(C)(C)NC(=O)[C@H](CCC(N)=O)NC(=O)[C@H](C)NC(=O)[C@H](CCCCNC(=O)COCCOCCNC(=O)COCCOCCNC(=O)CC[C@H](NC(=O)CCCCCCCCCCCCCCCCC(=O)O)C(=O)O)NC(=O)[C@H](CCC(=O)O)NC(=O)[C@H](CC(=O)O)NC(=O)[C@H](CC(C)C)NC(=O)[C@](C)(CC(C)C)NC(=O)[C@@H](NC(=O)[C@H](CO)NC(=O)[C@H](Cc1ccc(O)cc1)NC(=O)[C@H](CC(=O)O)NC(=O)[C@H](CO)NC(=O)[C@@H](NC(=O)[C@](C)(Cc1ccccc1)NC(=O)[C@@H](NC(=O)CNC(=O)[C@H](CCC(=O)O)NC(=O)C(C)(C)NC(=O)[C@@H](N)Cc1ccc(O)cc1)[C@@H](C)O)[C@@H](C)O)[C@@H](C)CC)[C@@H](C)CC)C(=O)N[C@@H](CCC(=O)O)C(=O)NCC(=O)NCC(=O)N1CCC[C@H]1C(=O)N[C@@H](CO)C(=O)N[C@@H](CO)C(=O)NCC(=O)N[C@@H](C)C(=O)N1CCC[C@H]1C(=O)N1CCC[C@H]1C(=O)N1CCC[C@H]1C(=O)N[C@@H](CO)C(N)=O [Example 213] (H-Y[Aib]EGT[αMeF]TSDYSI[αMeL]LDEK([AEEA-AEEA-γGlu-C18 diacid])AQ[Aib]EFI[dE]YLIEGGPSSGAPPPS-NH2) | 0.071 nM | 544 nM | 0.0523 nM | 2.75 nM | 0.365 nM
CC[C@H](C)[C@H](NC(=O)[C@H](CC(C)C)NC(=O)[C@H](Cc1ccc(O)cc1)NC(=O)[C@@H](CCC(=O)O)NC(=O)[C@@H](NC(=O)[C@H](Cc1ccccc1)NC(=O)[C@H](CCC(=O)O)NC(=O)C(C)(C)NC(=O)[C@H](CCC(N)=O)NC(=O)[C@H](C)NC(=O)[C@H](CCCCNC(=O)COCCOCCNC(=O)COCCOCCNC(=O)CCCCCCCCCCCCCCCCC(=O)O)NC(=O)[C@H](CCC(=O)O)NC(=O)[C@H](CC(=O)O)NC(=O)[C@H](CC(C)C)NC(=O)[C@](C)(CC(C)C)NC(=O)[C@@H](NC(=O)[C@H](CO)NC(=O)[C@H](Cc1ccc(O)cc1)NC(=O)[C@H](CC(=O)O)NC(=O)[C@H](CO)NC(=O)[C@@H](NC(=O)[C@](C)(Cc1ccccc1F)NC(=O)[C@@H](NC(=O)CNC(=O)[C@H](CCC(=O)O)NC(=O)C(C)(C)NC(=O)[C@@H](N)Cc1ccc(O)cc1)[C@@H](C)O)[C@@H](C)O)[C@@H](C)CC)[C@@H](C)CC)C(=O)N[C@@H](CCC(=O)O)C(=O)NCC(=O)NCC(=O)N1CCC[C@H]1C(=O)N[C@@H](CO)C(=O)N[C@@H](CO)C(=O)NCC(=O)N[C@@H](C)C(=O)N1CCC[C@H]1C(=O)N1CCC[C@H]1C(=O)N1CCC[C@H]1C(=O)N[C@@H](CO)C(N)=O [Example 214] (H-Y[Aib]EGT[αMePhe(2-F)]TSDYSI[αMeL]LDEK([AEEA-AEEA-C18 diacid])AQ[Aib]EFI[dE]YLIEGGPSSGAPPPS-NH2) | 0.0221 nM | 126 nM | 0.0251 nM | 1.99 nM | 0.0304 nM
CC[C@H](C)[C@H](NC(=O)[C@H](CC(C)C)NC(=O)[C@H](Cc1ccc(O)cc1)NC(=O)[C@@H](CCC(=O)O)NC(=O)[C@@H](NC(=O)[C@H](Cc1ccccc1)NC(=O)[C@H](CCC(=O)O)NC(=O)C(C)(C)NC(=O)[C@H](CCC(N)=O)NC(=O)[C@H](C)NC(=O)[C@H](CCCCNC(=O)COCCOCCNC(=O)COCCOCCNC(=O)CCCCCCCCCCCCCCCCCCC(=O)O)NC(=O)[C@H](CCC(=O)O)NC(=O)[C@H](CC(=O)O)NC(=O)[C@H](CC(C)C)NC(=O)[C@](C)(CC(C)C)NC(=O)[C@@H](NC(=O)[C@H](CO)NC(=O)[C@H](Cc1ccc(O)cc1)NC(=O)[C@H](CC(=O)O)NC(=O)[C@H](CO)NC(=O)[C@@H](NC(=O)[C@](C)(Cc1ccccc1F)NC(=O)[C@@H](NC(=O)CNC(=O)[C@H](CCC(=O)O)NC(=O)C(C)(C)NC(=O)[C@@H](N)Cc1ccc(O)cc1)[C@@H](C)O)[C@@H](C)O)[C@@H](C)CC)[C@@H](C)CC)C(=O)N[C@@H](CCC(=O)O)C(=O)NCC(=O)NCC(=O)N1CCC[C@H]1C(=O)N[C@@H](CO)C(=O)N[C@@H](CO)C(=O)NCC(=O)N[C@@H](C)C(=O)N1CCC[C@H]1C(=O)N1CCC[C@H]1C(=O)N1CCC[C@H]1C(=O)N[C@@H](CO)C(N)=O [Example 215] (H-Y[Aib]EGT[αMePhe(2-F)]TSDYSI[αMeL]LDEK([AEEA-AEEA-C20 diacid])AQ[Aib]EFI[dE]YLIEGGPSSGAPPPS-NH2) | 0.0529 nM | 75.2 nM | 0.0525 nM | 6.85 nM | 0.0666 nM
